Test results published in US20170096504A1, “METHOD FOR PRODUCING FLUOROPOLYMER AQUEOUS DISPERSION LIQUID” (DAIKIN INDUSTRIES, LTD., priority 2014, published 2017).

Key:
[1] = Critical micelle concentration by surface tension measurement; format: physicochemical
Excerpt: The critical micelle concentration may be determined by measuring the surface tension. The surface tension may be measured using a surface tensiometer CBVP-A3 (Kyowa Interface Science Co., Ltd.), for example.
The critical micelle concentration may be determined in accordance with “Environmental Science & Technology (2011)”, 45(19), 8120-8128 and the literature cited therein.

[2] = Log POW (1-octanol/water partition coefficient) by HPLC calibration
Description: Log POW is a 1-octanol/water partition coefficient which is represented by Log P (wherein P is the ratio between the concentration of the fluorosurfactant in octanol and that in water in a phase-separated octanol/water (1:1) liquid mixture containing the fluorosurfactant).
Log POW is determined as follows. Specifically, HPLC is performed on standard substances (heptanoic acid, octanoic acid, nonanoic acid, and decanoic acid) each having a known octanol/water partition coefficient using TOSOH ODS-120T (φ4.6 mm×250 mm) as a column and acetonitrile/0.6 mass % HClO4 aqueous solution (=1/1 (vol/vol %)) as an eluent at a flow rate of 1.0 ml/min, a sample amount of 300 μL, and a column temperature of 40° C.; with a detection light of UV 210 nm. For each standard substance, a calibration curve is drawn with respect to the elution time and the known octanol/water partition coefficient. Based on this calibration curve, Log POW is calculated from the elution time of the sample liquid in HPLC.

Row | SMILES | critical micelle concentration [1] | chromatographic logP [2]
1 | N.O=C(O)C(F)(F)C(F)(F)C(F)(F)C(F)(F)F [CF3(CF2)3COONH4, ammonium perfluoropentanoate] | 82 g/L | 2
2 | N.O=C(O)C(F)(OC(F)(F)C(F)(OC(F)(F)F)C(F)(F)F)C(F)(F)F (centres unmarked) [CF3OCF(CF3)CF2OCF(CF3)COONH4, ammonium 2,3,3,3-tetrafluoro-2-[1,1,2,3,3,3-hexafluoro-2-(trifluoromethoxy)propoxy]-propanoate] | 22 g/L | 3.4
3 | N.O=C(O)C(F)(OC(F)(F)C(F)(F)C(F)(F)F)C(F)(F)F (centres unmarked) [C3F7OCF(CF3)COONH4] | 48 g/L | 
4 | N.O=C(O)C(F)(F)C(F)(F)C(F)(F)C(F)(F)C(F)(F)F [CF3(CF2)4COONH4, ammonium perfluorohexanoate] | 56 g/L | 2.4
5 | O=S(=O)(O)CCC(F)(F)C(F)(F)C(F)(F)C(F)(F)C(F)(F)C(F)(F)F [C6F13(CH2)2SO3H] | 1 g/L | 
